According to patent EP4640223A1, “PHARMACEUTICAL COMPOSITION FOR PREVENTION OR TREATMENT OF CARDIOVASCULAR DISEASE, COMPRISING SODIUM-GLUCOSE COTRANSPORTER-2 INHIBITOR AND ANGIOTENSIN II RECEPTOR BLOCKER” (THPharm Corp., priority 2022, dated 2024):
Where two headings read alike, the source gives them in different places. Blank lines part the entries; values can stand above or below the compound they belong to.

Assays:
[1] = system: angiotensin converting enzyme (ACE); assay: ACE mRNA expression (RT-PCR, normalized to GAPDH) in LPS inflammation-induced H9c2 cells; format: cell-based, rat
Method: Specifically, LPS inflammation-induced H9c2 cells in Experimental Example 1-2 were treated with 10 or 25 µM Telmisartan and 10 or 50 µM Olmesartan, and then treated with 200 µl of chloroform together with 1 ml of TRIZol (Sigma, USA), gently mixed, and separated for 10 minutes, and then centrifuged at 4°C and 10,000 rpm for 10 minutes. After centrifugation, only the supernatant from the tube was taken and transferred to a new sterile tube, and the supernatant was treated with 500 µl of isopropanol to precipitate RNA. The precipitated RNA was centrifuged at 4°C, 10,000 rpm for 10 minutes, and then the supernatant except for the pellets in the tube was fully removed, and the RNA pellets were treated with 500 µl of 75% ethyl alcohol and thoroughly washed. The washed pellets were centrifuged at 4°C, 10,000 rpm for 5 minutes, and then the supernatant except the pellets was fully removed. The tube containing the pellets from which the supernatant had been cleanly removed was treated with diethyl pyrocarbonate (DEPC)-water and stored at - 80°C for use in an RT-PCR experiment.
RT-PCR was performed by synthesizing cDNA from mRNA using an RT-PCR kit containing DNA polymerase, buffer, dNTP, and tracking dye, and then using ACE primers in Table 1 under the conditions in Table 2 for 35 cycles. The PCR products were electrophoresed on a […] agarose gel, identified using a UV transilluminator, and expressed as normalized to GAPDH for quantitative comparison.
In order to confirm the effect of each combination or single substance on the mRNA expression of ACE, the experimental samples in Table 3 were treated to H9c2 cells induced with LPS inflammation in Experimental Example 1-2, respectively, and then the mRNA expression of ACE was evaluated in the same manner as in Experimental Example 1-3.

[2] = 4-week repeated oral administration toxicity; format: in vivo, Sprague-Dawley rats; conditions: daily for 4 weeks
Method: Specifically, groups were configured in the same manner as in Experimental Example 4-1, and the combinations were administered orally daily for 4 weeks to 5 male and 5 female 6-week-old Sprague-Dawley rats per group. During the test, general symptom observation, blood test, and body weight measurement were performed, and after the observation period ended, the rats were euthanized and autopsied.

[3] = repeated oral, steady state
[4] = Drug-drug compatibility test under accelerated stability conditions; format: physicochemical; conditions: for flexible substance / content (ARB) / content (SGLT-2 inhibitor): HPLC; for content (ARB): first figure of the cell; for property: color, clumping, etc.; for content (SGLT-2 inhibitor): second figure of the cell
Method: Specifically, after storing a mixture of ARB and SGLT-2 inhibitor for 2 weeks under accelerated stability test conditions (40 ± 2°C/75 ± 5% relative humidity), changes in the contents of each ingredient and flexible substance and changes in properties (color, clumping, etc.) were analyzed. Olmesartan, Valsartan, and Telmisartan were used as ARBs, and Empagliflozin, Dapagliflozin (Dapagliflozin propanediol monohydrate), and Canagliflozin were used as SGLT-2 inhibitors.

[5] = system: A549 cells; assay: Cell survival rate (MTT) in A549 cells; format: cell-based; conditions: after 24 hours and 48 hours, up to a concentration of 25 µM
Method: (§1) Specifically, A549 cells were obtained from the Korean Cell Line Bank (KCLB) and subcultured using a RPMI-1640 medium supplemented with 10% fetal bovine serum (FBS) and 1% Penicillin, and MDCK cells were obtained from ATCC and subcultured using a DMEM medium supplemented with 10% FBS. 200 µl each of the A549 cells and MDCK cells incubated in an incubator under 37°C and 5% CO2 conditions were dispensed at 2 × 10^4 cells/well in a 96-well plate, and then a control group was treated with 100 µl of the medium, and experimental groups were treated with 1.25, 25, 50, and 100 µM of Telmisartan or Olmesartan, respectively. After 24 hours and 48 hours, all of the wells were treated with 50 µl each of a 2 mg/ml MTT reagent and incubated in an incubator for 3 hours, and then each well was added with 500 µl of DMSO, wrapped in foil, stirred for 30 minutes at room temperature, and the absorbance was measured at 570 nm to obtain the cell survival rate.

[6] = system: MDCK cells; assay: Cell survival rate (MTT) in MDCK cells; format: cell-based; conditions: after 24 hours and 48 hours, up to a concentration of 25 µM
Method: as §1

[7] = system: angiotensin converting enzyme (ACE); assay: ACE protein expression (Human ACE ELISA) in LPS inflammation-induced H9c2 cells; format: cell-based, rat
Method: Specifically, H9c2 cells as a human cardiac cell line were obtained and used from the Korea Cell Line Bank (KCLB 40071, Korea) and incubated and prepared in a DMEM medium supplemented with 10% FBS and 1% antibiotic-antimycotic (10 units/ml penicillin, 100 µg/ml streptomycin, 0.25 µg/ml amphotericin) under 37°C and 5% CO2 conditions.
To confirm the effect on ACE activity, the prepared H9c2 cells were treated with 2.5 µg/ml of Lipopolysaccharide (LPS), which was 2.5 times more than the amount used in conventional inflammation-related experiments, to induce inflammation, thereby setting the optimized conditions for confirming ACE expression. […]
To perform the ELISA assay, 10,000 pg/ml, 5,000 pg/ml, 2,500 pg/ml, 1,250 pg/ml, 625 pg/ml, 312 pg/ml, and 156 pg/ml of Human ACE standard solutions and a standard dilution buffer were added by 0.1 ml to each well of an antibody-coated 96-well plate. […] Thereafter, each well was added with 90 µl of the prepared TMB solution, incubated for 20 to 25 minutes in a dark room at 37°C, and then treated with each 0.1 ml of the prepared TMB stop solution to stop an ACE ELISA reaction, and the OD absorbance at 450 nm was read in a microplate reader within 30 minutes, and the relative OD450 was derived using the following Equation. […]

[8] = alone, low-concentration administration groups of 2.5 µM to 10 µM
[9] = experimental samples at the concentrations of Table 3
[10] = Acceleration 1 week, 40 ± 2°C/75 ± 5% relative humidity
[11] = Acceleration 2 week, 40 ± 2°C/75 ± 5% relative humidity

SMILES: OC[C@H]1O[C@@H](c2ccc(Cl)c(Cc3ccc(O[C@H]4CCOC4)cc3)c2)[C@H](O)[C@@H](O)[C@@H]1O [Empagliflozin, (1S)-1,5-anhydro-1-C-[4-chloro-3-[[4-[[(3S)-tetrahydro-3-furanyl]oxy]phenyl]methyl]phenyl]-D-glucitol]
mRNA expression of ACE [1, 8]: did not decrease to a normal level

Cmax T/R ratio ([3]; Dapagliflozin 10 mg in the presence of Telmisartan 80 mg, 90% confidence interval 0.93 to1.12): 1.02
AUC T/R ratio ([3]; Dapagliflozin 10 mg in the presence of Telmisartan 80 mg, 90% confidence interval 0.97 to 1.03): 1.00
SMILES: CCOc1ccc(Cc2cc([C@@H]3O[C@H](CO)[C@@H](O)[C@H](O)[C@H]3O)ccc2Cl)cc1 [Dapagliflozin, (1S)-1,5-anhydro-1-C-{4-chloro-3-[(4-ethoxyphenyl)methyl]phenyl}-D-glucitol]
mRNA expression of ACE [1, 8]: did not decrease to a normal level
GLU ([2]; blood test): decreased

SMILES: CCCc1nc2c(C)cc(-c3nc4ccccc4n3C)cc2n1Cc1ccc(-c2ccccc2C(=O)O)cc1 [Comparative Example 14, Telmisartan]
mRNA expression of ACE [1, 9]: decrease below the normal level

flexible substance [4, 10]: 0.1 or more
content (ARB) [4, 10]: 99.4%
property [4, 10]: suitable
flexible substance [4, 11]: 0.1 or more
content (ARB) [4, 11]: 99.2%
property [4, 11]: suitable
flexible substance ([4]; Initial): 0.1 or less
content (ARB) ([4]; Initial): 99.7%
property ([4]; Initial): suitable
SMILES: CCCCC(=O)N(Cc1ccc(-c2ccccc2-c2nnn[nH]2)cc1)[C@H](C(=O)O)C(C)C [Com. Ex. 20, Valsartan]

flexible substance [4, 10]: 0.1 or less
content (ARB) [4, 10]: 100.1%
property [4, 10]: suitable
flexible substance [4, 11]: 0.1 or less
content (ARB) [4, 11]: 100%
property [4, 11]: suitable
flexible substance ([4]; Initial): 0.1 or less
content (ARB) ([4]; Initial): 100.1%
property ([4]; Initial): suitable
SMILES: CCCc1nc2c(C)cc(-c3nc4ccccc4n3C)cc2n1Cc1ccc(-c2ccccc2C(=O)O)cc1 [Com. Ex. 16, Telmisartan]

flexible substance [4, 10]: 1.0 or less
content (SGLT-2 inhibitor) [4, 10]: 97.3%
property [4, 10]: suitable
flexible substance [4, 11]: 1.0 or more
content (SGLT-2 inhibitor) [4, 11]: 95.1%
property [4, 11]: suitable
flexible substance ([4]; Initial): 0.1 or less
content (SGLT-2 inhibitor) ([4]; Initial): 99.9%
property ([4]; Initial): suitable
SMILES: OC[C@H]1O[C@@H](c2ccc(Cl)c(Cc3ccc(O[C@H]4CCOC4)cc3)c2)[C@H](O)[C@@H](O)[C@@H]1O [Com. Ex. 17, Empagliflozin]

SMILES: OC[C@H]1O[C@@H](c2ccc(Cl)c(Cc3ccc(O[C@H]4CCOC4)cc3)c2)[C@H](O)[C@@H](O)[C@@H]1O [Comparative Example 8, Empagliflozin]
mRNA expression of ACE [1, 9]: decrease below the normal level

Cmax T/R ratio ([3]; Telmisartan 80 mg in the presence of Dapagliflozin 10 mg, 90% confidence interval 0.99 to 1.43): 1.19
AUC T/R ratio ([3]; Telmisartan 80 mg in the presence of Dapagliflozin 10 mg, 90% confidence interval 1.01 to 1.18): 1.09
SMILES: CCCc1nc2c(C)cc(-c3nc4ccccc4n3C)cc2n1Cc1ccc(-c2ccccc2C(=O)O)cc1 [Telmisartan, 4'-[(1,4'-dimethyl-2'-propyl[2,6'-bi-1H-benzimidazol]-1'-yl)methyl][1,1'-biphenyl]-2-carboxylic acid]
cell survival rate [5]: no effect
cell survival rate [6]: no effect
ACE expression inhibition effect ([7]; 25 µM treatment group): the best
ACE expression inhibition effect ([7]; all treatment concentrations (10, 25, 50 µM), comparison with Olmesartan): superior to that of Olmesartan
mRNA expression ([1]; ACE mRNA, 25 µM treatment group): mostly inhibited
mRNA expression inhibition effect ([1]; ACE mRNA, all treatment concentrations (Telmisartan 10 or 25 µM, Olmesartan 10 or 50 µM)): superior to that of Olmesartan
mRNA expression of ACE [1, 8]: did not decrease to a normal level
body weight measurement [2]: tendency for inhibiting weight gain

SMILES: CCCc1nc(C(C)(C)O)c(C(=O)O)n1Cc1ccc(-c2ccccc2-c2nnn[nH]2)cc1 [Olmesartan]
cell survival rate [5]: no effect
cell survival rate [6]: no effect

flexible substance [4, 10]: 1.0 or less
content (SGLT-2 inhibitor) [4, 10]: 95.2%
property [4, 10]: unsuitable
flexible substance [4, 11]: 5.0 or more
content (SGLT-2 inhibitor) [4, 11]: 89.2%
property [4, 11]: unsuitable
flexible substance ([4]; Initial): 0.1 or less
content (SGLT-2 inhibitor) ([4]; Initial): 99.5%
property ([4]; Initial): suitable
SMILES: Cc1ccc([C@@H]2O[C@H](CO)[C@@H](O)[C@H](O)[C@H]2O)cc1Cc1ccc(-c2ccc(F)cc2)s1 [Com. Ex. 21, Canagliflozin]
